{"source": "patent US20250221996A1", "about": "“HETEROCYCLIC COMPOUNDS, COMPOSITIONS THEREOF, AND METHODS OF TREATMENT THEREWITH” (BeiGene, Ltd., priority 2022, published 2025)"}
{"tested_on": "pERK1/2(THR202/TYR204) level in AsPC-1 cells", "assay": "pERK assay (HTRF) in AsPC-1 cell line", "assay_type": "cell-based", "conditions": "2 h compound treatment", "description": "(§1) AsPC-1 cell line was used in this study. Cells were maintained in RPMI-1640 supplemented with 10% fetal bovine serum (Thermo Fisher), 50 units/mL penicillin and streptomycin (Thermo Fisher) and kept at 37° C. in a humidified atmosphere of 5% CO2 in air. Cells were reinstated from frozen stocks that were laid down within 30 passages from the original cells purchased. 30000 cells per well were seeded into a 96-well plate and incubated overnight. Cells were treated with a 10-point dilution series. The final compound concentration is from 0 to 10 μM. After 2 h compound treatment, cells were lysed, and the pERK1/2(THR202/TYR204) level in the cell lysates was detected by HTRF kit (Cisbio). In brief, a total of 16 μL of cell lysate from each well of a 96-well plate was transferred to a 384-well white assay plate. Lysate from each well was incubated with 2 μL of Eu3+-cryptate (donor) labeled anti-phospho-ERK1/2 and 2 μL of D2 (acceptor) labeled anti-phospho-ERK1/2 antibodies (Cisbio) overnight in dark at room temperature. When donor and acceptor are in close proximity, excitation of the donor with laser triggers a Fluorescence Resonance Energy Transfer (FRET) towards the acceptor, which in turn fluoresces at 655 nm wavelength. FRET signals were measured using a PHERAstar FSX reader (BMG Labtech). IC50 determination was performed by fitting the curve of percent inhibition versus the log of the inhibitor concentration using Dotmatics.", "units": {"IC50": "nM"}}
{"smiles": "N#Cc1c(N)sc2c(F)ccc(-c3c(C(F)(F)F)cc4c(N5CC6CCC(C5)N6)nc(OCC5(C#N)CCOC5)nc4c3F)c12", "note": "(single isomer, unassigned) [Example 10-Isomer 4, 3-(((7-(2-amino-3-cyano-7-fluorobenzo[b]thiophen-4-yl)-4-(3,8-diazabicyclo[3.2.1]octan-3-yl)-8-fluoro-6-(trifluoromethyl)quinazolin-2-yl)oxy)methyl)tetrahydrofuran-3-carbonitrile]", "IC50": 56}
{"smiles": "COC1(COc2nc(N3CC4CCC(C3)N4)c3cc(C(F)(F)F)c(-c4ccc(F)c5sc(N)c(C#N)c45)c(F)c3n2)CCOC1", "note": "(single isomer, unassigned) [Example 3-Isomer 3, 4-(4-(3,8-diazabicyclo[3.2.1]octan-3-yl)-8-fluoro-2-((3-methoxytetra hydrofuran-3-yl)methoxy)-6-(trifluoromethyl)quinazolin-7-yl)-2-amino-7-fluoro benzo[b]thiophene-3-carbonitrile]", "IC50": 96}
{"smiles": "N#Cc1c(N)sc2c(F)ccc(-c3c(C(F)(F)F)cc4c(N5CC6CCC(C5)N6)nc(OCC5(C#N)CCOC5)nc4c3F)c12", "note": "(single isomer, unassigned) [Example 10-Isomer 2, 3-(((7-(2-amino-3-cyano-7-fluorobenzo[b]thiophen-4-yl)-4-(3,8-diazabicyclo[3.2.1]octan-3-yl)-8-fluoro-6-(trifluoromethyl)quinazolin-2-yl)oxy)methyl)tetrahydrofuran-3-carbonitrile]", "IC50": "> 10000"}
{"smiles": "N#Cc1c(N)sc2c(F)ccc(-c3c(C(F)(F)F)cc4c(N5C6CCC5CNC6)nc(OCC56COC(C5)C6)nc4c3F)c12", "note": "(single isomer, unassigned) [Example 9-Isomer 2, 4-(2-((2-oxabicyclo[2.1.1]hexan-4-yl)methoxy)-4-(3,8-diazabicyclo[3.2.1]octan-8-yl)-8-fluoro-6-(trifluoromethyl)quinazolin-7-yl)-2-amino-7-fluorobenzo[b]thiophene-3-carbonitrile]", "IC50": 103}
{"smiles": "COC1(COc2nc(N3CC4CCC(C3)N4)c3cc(C(F)(F)F)c(-c4ccc(F)c5sc(N)c(C#N)c45)c(F)c3n2)CCOC1", "note": "(single isomer, unassigned) [Example 3-Isomer 4, 4-(4-(3,8-diazabicyclo[3.2.1]octan-3-yl)-8-fluoro-2-((3-methoxytetra hydrofuran-3-yl)methoxy)-6-(trifluoromethyl)quinazolin-7-yl)-2-amino-7-fluoro benzo[b]thiophene-3-carbonitrile]", "IC50": 273}
{"tested_on": "pERK1/2(THR202/TYR204) level in AsPC-1 cells", "assay": "pERK assay (HTRF) in AsPC-1 cell line", "assay_type": "cell-based", "conditions": "Homo sapiens, ASPC1, 2 h, 2 h compound treatment", "description": "as §1", "units": {"IC50": "nM"}}
{"smiles": "N#Cc1c(N)sc2c(F)ccc(-c3c(C(F)(F)F)cc4c(N5CC6CCC(C5)N6)nc(OCC5(C#N)COC5)nc4c3F)c12", "note": "[Example 49, 3-(((7-(2-amino-3-cyano-7-fluorobenzo[b]thiophen-4-yl)-4-(3,8-diazabicyclo[3.2.1]octan-3-yl)-8-fluoro-6-(trifluoromethyl)quinazolin-2-yl)oxy)methyl)oxetane-3-carbonitrile]", "IC50": 103}
{"smiles": "COC1(COc2nc(N3CC4CCC(C3)N4)c3cc(C(F)(F)F)c(-c4ccc(F)c5sc(N)c(C#N)c45)c(F)c3n2)COC1", "note": "[Example 28, 4-(4-(3,8-diazabicyclo[3.2.1]octan-3-yl)-8-fluoro-2-((3-methoxyoxetan-3-yl)methoxy)-6-(trifluoromethyl)quinazolin-7-yl)-2-amino-7-fluorobenzo[b]thiophene-3-carbonitrile]", "IC50": 78}
{"smiles": "CC12CC(COc3nc(N4CC5CCC(C4)N5)c4ccc(-c5ccc(F)c6sc(N)c(C#N)c56)c(F)c4n3)(CO1)C2", "note": "[Example 15, 4-(4-(3,8-diazabicyclo[3.2.1]octan-3-yl)-8-fluoro-2-((1-methyl-2-oxabicyclo[2.1.1]hexan-4-yl)methoxy)quinazolin-7-yl)-2-amino-7-fluorobenzo[b] thiophene-3-carbonitrile]", "IC50": 7140}
{"smiles": "CC1(O)COCC1COc1nc(N2CC3CCC(C2)N3)c2cc(C(F)(F)F)c(-c3ccc(F)c4sc(N)c(C#N)c34)c(F)c2n1", "note": "(centres unmarked) [Example 27, 4-(4-(3,8-diazabicyclo[3.2.1]octan-3-yl)-8-fluoro-2-((4-hydroxy-4-methyltetrahydrofuran-3-yl)methoxy)-6-(trifluoromethyl)quinazolin-7-yl)-2-amino-7-fluorobenzo[b]thiophene-3-carbonitrile]", "IC50": 975}
{"smiles": "COCC12CC(COc3nc(N4CC5CCC(C4)N5)c4cc(C(F)(F)F)c(-c5ccc(F)c6sc(N)c(C#N)c56)c(F)c4n3)(CO1)C2", "note": "(single isomer, unassigned) [Example 11-Isomer 2, 4-(4-(3,8-diazabicyclo[3.2.1]octan-3-yl)-8-fluoro-2-((1-(methoxymethyl)-2-oxabicyclo[2.1.1]hexan-4-yl)methoxy)-6-(trifluoromethyl)quinazolin-7-yl)-2-amino-7-fluorobenzo[b]thiophene-3-carbonitrile]", "IC50": 37}
{"smiles": "N#Cc1c(N)sc2c(F)ccc(-c3c(C(F)(F)F)cc4c(N5CC6CCC(C5)N6)nc(OCC5(C(F)F)CCOCC5)nc4c3F)c12", "note": "[Example 43, 4-(4-(3,8-diazabicyclo[3.2.1]octan-3-yl)-2-((4-(difluoromethyl)tetrahydro-2H-pyran-4-yl)methoxy)-8-fluoro-6-(trifluoromethyl)quinazolin-7-yl)-2-amino-7-fluorobenzo[h]thiophene-3-carbonitrile]", "IC50": 479}
{"smiles": "N#Cc1c(N)sc2c(F)ccc(-c3c(C(F)(F)F)cc4c(N5CC6CCC(C5)N6)nc(OCC5(CF)COC5)nc4c3F)c12", "note": "[Example 53, 4-(4-(3,8-diazabicyclo[3.2.1]octan-3-yl)-8-fluoro-2-((3-(fluoromethyl)oxetan-3-yl)methoxy)-6-(trifluoromethyl)quinazolin-7-yl)-2-amino-7-fluoro benzo[b]thiophene-3-carbonitrile]", "IC50": 33}
{"smiles": "N#Cc1c(N)sc2c(F)ccc(-c3c(C(F)(F)F)cc4c(N5CC6CCC(C5)N6)nc(OCC5(F)CCOC5)nc4c3F)c12", "note": "(centres unmarked) [Example 25, 4-(4-(3,8-diazabicyclo[3.2.1]octan-3-yl)-8-fluoro-2-((3-fluorotetra hydrofuran-3-yl)methoxy)-6-(trifluoromethyl)quinazolin-7-yl)-2-amino-7-fluoro benzo[b]thiophene-3-carbonitrile]", "IC50": 201}
{"smiles": "N#Cc1c(N)sc2c(F)ccc(-c3c(C(F)(F)F)cc4c(N5CC6CCC(C5)N6)nc(OCC5(O)CCOCC5)nc4c3F)c12", "note": "[Example 19, 4-(4-(3,8-diazabicyclo[3.2.1]octan-3-yl)-8-fluoro-2-((4-hydroxytetrahydro-2H-pyran-4-yl)methoxy)-6-(trifluoromethyl)quinazolin-7-yl)-2-amino-7-fluorobenzo[b]thiophene-3-carbonitrile]", "IC50": 326}
{"smiles": "N#Cc1c(N)sc2c(F)ccc(-c3c(C(F)(F)F)cc4c(N5CC6CCC(C5)N6)nc(OCC5(CO)COC5)nc4c3F)c12", "note": "[Example 57, 4-(4-(3,8-diazabicyclo[3.2.1]octan-3-yl)-8-fluoro-2-((3-(hydroxymethyl)oxetan-3-yl)methoxy)-6-(trifluoromethyl)quinazolin-7-yl)-2-amino-7-fluorobenzo[b]thiophene-3-carbonitrile]", "IC50": 294}
{"smiles": "COC1(COc2nc(N3CC4CCC(C3)N4)c3cc(C(F)(F)F)c(-c4ccc(F)c5sc(N)c(C#N)c45)c(F)c3n2)CN(C(C)=O)C1", "note": "[Example 39, 4-(2-((1-acetyl-3-methoxyazetidin-3-yl)methoxy)-4-(3,8-diazabicyclo [3.2.1]octan-3-yl)-8-fluoro-6-(trifluoromethyl)quinazolin-7-yl)-2-amino-7-fluorobenzo[b]thiophene-3-carbonitrile]", "IC50": 495}
{"smiles": "COCCNC1C[C@H]2CC[C@@H]1N2c1nc(OCC23COC(C2)C3)nc2c(F)c(-c3ccc(F)c4sc(N)c(C#N)c34)c(C(F)(F)F)cc12", "note": "(stereo partly drawn) [Example 41, 4-(2-((2-oxabicyclo[2.1.1]hexan-4-yl)methoxy)-8-fluoro-4-((1S,4R)-2-((2-methoxyethyl)amino)-7-azabicyclo[2.2.1]heptan-7-yl)-6-(trifluoromethyl)quinazolin-7-yl)-2-amino-7-fluorobenzo[b]thiophene-3-carbonitrile]", "IC50": 860}
{"smiles": "CC(=O)N1CC(F)(COc2nc(N3CC4CCC(C3)N4)c3cc(C(F)(F)F)c(-c4ccc(F)c5sc(N)c(C#N)c45)c(F)c3n2)C1", "note": "[Example 36, 4-(2-((1-acetyl-3-fluoroazetidin-3-yl)methoxy)-4-(−3,8-diazabicyclo[3.2.1]octan-3-yl)-8-fluoro-6-(trifluoromethyl)quinazolin-7-yl)-2-amino-7-fluorobenzo[b]thiophene-3-carbonitrile]", "IC50": 250}
{"smiles": "CC12CC(COc3nc(N4CC5CCC(C4)N5)c4ccc(-c5cc(O)cc6ccccc56)c(F)c4n3)(CO1)C2", "note": "[Example 42, 4-(4-(3,8-diazabicyclo[3.2.1]octan-3-yl)-8-fluoro-2-((1-methyl-2-oxabicyclo[2.1.1]hexan-4-yl)methoxy)quinazolin-7-yl)naphthalen-2-ol]", "IC50": 4340}
{"smiles": "N#Cc1c(N)sc2c(F)ccc(-c3c(C(F)(F)F)cc4c(N5CC6CCC(C5)N6)nc(OCC5(CO)CCOCC5)nc4c3F)c12", "note": "[Example 50, 4-(4-(3,8-diazabicyclo[3.2.1]octan-3-yl)-8-fluoro-2-((4-(hydroxymethyl)tetrahydro-2H-pyran-4-yl)methoxy)-6-(trifluoromethyl)quinazolin-7-yl)-2-amino-7-fluorobenzo[b]thiophene-3-carbonitrile]", "IC50": 193}
